{"source": "patent USRE32016E", "about": "“Analysis of lactic acid or lactate using lactate oxidase” (Eastman Kodak Company, priority 1981, dated 1985)", "biological_target": "lactate oxidase from Streptococcus faecalis ATCC 12755 (Enterococcus casseliflavus, UniProt C9AC47)", "sequence (C9AC47 entry or part of it)": "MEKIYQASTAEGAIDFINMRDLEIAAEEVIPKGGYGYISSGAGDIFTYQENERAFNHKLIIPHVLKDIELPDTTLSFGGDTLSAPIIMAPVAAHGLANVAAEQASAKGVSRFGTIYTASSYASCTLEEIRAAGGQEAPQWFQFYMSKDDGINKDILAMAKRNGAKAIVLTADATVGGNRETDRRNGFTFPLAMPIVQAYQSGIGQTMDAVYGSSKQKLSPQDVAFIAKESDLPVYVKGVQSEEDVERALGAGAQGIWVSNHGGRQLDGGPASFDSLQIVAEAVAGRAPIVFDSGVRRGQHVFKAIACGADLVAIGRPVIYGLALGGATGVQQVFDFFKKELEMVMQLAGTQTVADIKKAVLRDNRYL", "details": "read-out: Km for L(+)-lactate; 30° C., potassium phosphate buffer pH 7.0", "method": "For spectrophotometric assay of the lactate oxidase standard reaction mixtures contained in a total volume of 1.0 ml: 100 μmoles potassium phosphate buffer, pH 7.0, 25 μmoles lactic acid, 30 μg horseradish peroxidase (5.6 purpurogallin units), and 0.25 μmoles orthodianisidine. Samples were equilibrated at 30° C. and then reactions initiated by addition of S. faecalis lactate oxidase. Absorbance at 430 nm was measured in a Beckman A-25 Spectrophotometer. Initial rates were calculated from the linear portion of the curve and converted to units of lactate oxidase activity were appropriate. One unit=1 μmole of dye produced per minute at 30° C. using an ε=1.1×10^4 for orthodianisidine.\nReaction mixtures contained in a total volume of 1.0 ml: 90 μmoles potassium phosphate buffer, (pH 7.0), 0.2 μmoles orthodianisidine, or 96 μg 4-aminoantipyrene hydrochloride and 32 μg 1,7-dihydroxynaphthalene, 25 μg horseradish peroxidase (5.6-purpurogallin units) and 0.64 mg lactate oxidase (0.4 units).\nSamples were equilibrated at 30° C. and the initial absorbance measured at 430 nm. […] For each serum sample, a blank, which contained all components except the lactate oxidase, was treated in the same manner as the sample. The ΔA430 for each blank was subtracted from the ΔA430 of the appropriate sample and the lactate concentration was determined by comparison to a lactate standard curve. […]", "data": [{"smiles": "C[C@H](O)C(=O)O", "note": "[L(+)-lactate]", "values": [{"measurement": "Km", "result": 200, "unit": "µM"}]}]}
